Laboratory results taken from patent US20260102340A1, “Therapeutic Formulation” (1000739373 Ontario Ltd., priority 2022, published 2026).
Where “and” joins values, the source holds several entries; their conditions need not be identical. Equal values may be shown once. One block for each compound: values may come before it.

Columns and labels:
Assay type in all cases: physicochemical
[1] = Stability of CBD formulation in HFA 134a (residual); conditions: for Residual (% of 5° C. data): Valve Up
Procedure: The stability of a cannabidiol (CBD) formulation in HFA 134a was evaluated over a 6-month period.
The formulation consisted of 3.57% (w/w) CBD, 15% (w/w) ethanol, and HFA 134a. The formulation was packaged in Presspart™ Plasma 14 mL canisters with metering valves 1908 (Aptar™). The canisters were stored in the valve-up orientation for 6 months at 5° C., 25° C., or 40° C. The residual formulation was measured at 1 month and 6 months.

[2] = Visual solubility of formulations packaged in glass bottles; conditions: for Visual appearance in glass bottles: 5° C.
[3] = Melatonin drug residual (total can content) after storage at 40° C. and 75% relative humidity; conditions: for Initial Melatonin t = 0 (can content) / Initial Melatonin t = 0, mean: 100 μg/50 μL
Procedure: Drug residual measurements (total can content) was determined following storage at 40° C. and 75% relative humidity.
Each canister type was packaged with metering valve 1908 (Aptar™, 50 μl) (MDI batches OZ211003/RJ/A and OZ211003/RJ/C) and metering valves 1904 (Bespak™ 50 μl, with dip tube 1906) (MDI batches OZ211003/RJ/B and OZ211003/RJ/D).

[4] = Quantitative solubility of melatonin in ethanol/HFA 152a (filtered supersaturated solutions, HPLC)
Procedure: Data was obtained at 5° C. (see FIG. 15 and FIG. 16) and T=20° C. (see FIG. 17 and FIG. 18) and presented as % w/w, μg/50 μl and μg/63 μl (see also Table 4).

[5] = 6% w/w ethanol, HFA 152a, Plain Aluminum 14 ml canister, Metering Valve 1904 (with dip tube 1906)
[6] = 6% w/w ethanol, HFA 152a, Plain Aluminum 14 ml canister, Metering Valve 1908
[7] = 6% w/w ethanol, HFA 152a, Plasma Coated 14 ml canister, Metering Valve 1904 (with dip tube 1906)
[8] = 6% w/w ethanol, HFA 152a, Plasma coated 14 ml canister, Metering Valve 1908
[9] = Plain Aluminum canister, Metering Valve 1904 (with dip tube 1906), t = 1 month @ 40° C./75% RH, stored Inverted
[10] = Plain Aluminum canister, Metering Valve 1904 (with dip tube 1906), t = 1 month @ 40° C./75% RH, stored Upright
[11] = Plain Aluminum canister, Metering Valve 1904 (with dip tube 1906), t = 3 month @ 40° C./75% RH, stored Inverted (valve down)
[12] = Plain Aluminum canister, Metering Valve 1904 (with dip tube 1906), t = 3 month @ 40° C./75% RH, stored Upright (valve up)
[13] = Plain Aluminum canister, Metering Valve 1908, t = 1 month @ 40° C./75% RH, stored Inverted
[14] = Plain Aluminum canister, Metering Valve 1908, t = 1 month @ 40° C./75% RH, stored Upright
[15] = Plain Aluminum canister, Metering Valve 1908, t = 3 month @ 40° C./75% RH, stored Inverted (valve down)
[16] = Plain Aluminum canister, Metering Valve 1908, t = 3 month @ 40° C./75% RH, stored Upright (valve up)
[17] = Plasma Coated canister, Metering Valve 1904 (with dip tube 1906), t = 1 month @ 40° C./75% RH, stored Inverted
[18] = Plasma Coated canister, Metering Valve 1904 (with dip tube 1906), t = 1 month @ 40° C./75% RH, stored Upright
[19] = Plasma Coated canister, Metering Valve 1904 (with dip tube 1906), t = 3 month @ 40° C./75% RH, stored Inverted (valve down)
[20] = Plasma Coated canister, Metering Valve 1904 (with dip tube 1906), t = 3 month @ 40° C./75% RH, stored Upright (valve up)
[21] = Plasma coated canister, Metering Valve 1908, t = 1 month @ 40° C./75% RH, stored Inverted
[22] = Plasma coated canister, Metering Valve 1908, t = 1 month @ 40° C./75% RH, stored Upright
[23] = Plasma coated canister, Metering Valve 1908, t = 3 month @ 40° C./75% RH, stored Inverted (valve down)
[24] = Plasma coated canister, Metering Valve 1908, t = 3 month @ 40° C./75% RH, stored Upright (valve up)

Compound: C=C(C)[C@@H]1CCC(C)=C[C@H]1c1c(O)cc(CCCCC)cc1O [CBD, cannabidiol]
Stability of CBD-HFA formulations ([1]; 5° C., 25° C. and 40° C.): stable
Residual (% of 5° C. data) ([1]; Batch OZ210527/DAL/G1, 1 month (n = 3), 25° C.): 100.3 % of 5 °C data
Residual (% of 5° C. data) ([1]; Batch OZ210527/DAL/G1, 1 month (n = 3), 40° C.): 98.5 % of 5 °C data
Residual (% of 5° C. data) ([1]; Batch OZ210527/DAL/G1, 3.57% CBD, 15% ethanol, HFA 134a, 1 month (n = 3), 5° C.): 100.00 % of 5 °C data
Residual (% of 5° C. data) ([1]; Batch OZ210527/DAL/G1, 6 month (n = 4), 25° C.): 93.3 % of 5 °C data
Residual (% of 5° C. data) ([1]; Batch OZ210527/DAL/H1, 1 month (n = 3), 25° C.): 100.2 % of 5 °C data
Residual (% of 5° C. data) ([1]; Batch OZ210527/DAL/H1, 1 month (n = 3), 40° C.): 98.1 % of 5 °C data
Residual (% of 5° C. data) ([1]; Batch OZ210527/DAL/H1, 3.57% CBD, 15% ethanol, HFA 134a, 1 month (n = 3), 5° C.): 100.0 % of 5 °C data
Residual (% of 5° C. data) ([1]; Batch OZ210527/DAL/H1, 6 month (n = 4), 25° C.): 93.5 % of 5 °C data

Visual solubility ([2]; 50 μg/50 μl in 5% ethanol and HFA 134a, T=5° C. and T=20° C.): confirmed visually
Visual solubility ([2]; 100 μg/50 μl (5% w/w ethanol), HFA 152a, 4° C. and 20° C.): soluble
Visual solubility in glass bottles ([2]; 100 μg/50 μl in 12% w/w ethanol and HFA 134a, T=5° C. and T=20° C.): confirmed visually
Visual appearance in glass bottles ([2]; 100 μg/50 μl, 6% w/w ethanol in HFA 152a): clear solutions
Visual appearance in glass bottles ([2]; 200 μg/50 μl, 8% w/w ethanol in HFA 152a): clear solutions
Visual solubility ([2]; 500 μg/50 μl (15% w/w ethanol), HFA 152a, 4° C. and 20° C.): soluble
Initial Melatonin t = 0 (can content) [3, 5]: 15408 µg and 15450 µg and 15897 µg
Initial Melatonin t = 0, mean [3, 5]: 15.6 mg
Initial Melatonin t = 0 (can content) [3, 6]: 16200 µg and 15676 µg and 15379 µg
Initial Melatonin t = 0, mean [3, 6]: 15.8 mg
Initial Melatonin t = 0 (can content) [3, 7]: 15417 µg and 15682 µg and 15292 µg
Initial Melatonin t = 0, mean [3, 7]: 15.5 mg
Initial Melatonin t = 0 (can content) [3, 8]: 15430 µg and 15517 µg and 15810 µg
Initial Melatonin t = 0, mean [3, 8]: 15.6 mg
Residual melatonin at 3-month ([3]; MDIs stored valve down): 93% to 96
Residual Melatonin [3, 9]: 15162 µg and 14967 µg
Residual Melatonin % of t = 0 [3, 9]: 97 % of t = 0
Residual Melatonin [3, 10]: 14959 µg and 15331 µg
Residual Melatonin % of t = 0 [3, 10]: 97 % of t = 0
Residual Melatonin [3, 11]: 14652 µg and 14318 µg
Residual Melatonin % of t = 0 [3, 11]: 93 % of t = 0
Residual Melatonin [3, 12]: 14721 µg and 14847 µg
Residual Melatonin % of t = 0 [3, 12]: 98 % of t = 0
Residual Melatonin [3, 13]: 15171 µg and 15131 µg
Residual Melatonin % of t = 0 [3, 13]: 98 % of t = 0
Residual Melatonin [3, 14]: 15403 µg and 15581 µg
Residual Melatonin % of t = 0 [3, 14]: 100 % of t = 0
Residual Melatonin [3, 15]: 14920 µg and 14914 µg
Residual Melatonin % of t = 0 [3, 15]: 96 % of t = 0
Residual Melatonin [3, 16]: 15600 µg and 15422 µg
Residual Melatonin % of t = 0 [3, 16]: 100 % of t = 0
Residual Melatonin [3, 17]: 14872 µg and 14984 µg
Residual Melatonin % of t = 0 [3, 17]: 97 % of t = 0
Residual Melatonin [3, 18]: 14944 µg and 15211 µg
Residual Melatonin % of t = 0 [3, 18]: 98 % of t = 0
Residual Melatonin [3, 19]: 14634 µg and 14510 µg
Residual Melatonin % of t = 0 [3, 19]: 94 % of t = 0
Residual Melatonin [3, 20]: 14805 µg and 14789 µg
Residual Melatonin % of t = 0 [3, 20]: 98 % of t = 0
Residual Melatonin [3, 21]: 15024 µg and 14980 µg
Residual Melatonin % of t = 0 [3, 21]: 96 % of t = 0
Residual Melatonin [3, 22]: 15578 µg and 15444 µg
Residual Melatonin % of t = 0 [3, 22]: 100 % of t = 0
Residual Melatonin [3, 23]: 14661 µg and 14791 µg
Residual Melatonin % of t = 0 [3, 23]: 94 % of t = 0
Residual Melatonin [3, 24]: 15461 µg and 15469 µg
Residual Melatonin % of t = 0 [3, 24]: 100 % of t = 0
Residual melatonin at 1-month ([3]; all packaging and storage conditions, 40° C./75% RH): 96-98%
Residual melatonin at 3-month ([3]; stored valve up, both canister types, metering valve 1904 (Bespak with dip tube 1906)): 98%
Residual melatonin at 3-month ([3]; stored valve up, both canister types, metering valve 1908 (Aptar)): 100%
Initial time point residual, % of the target formulation ([3]; t = 0, 100 μg/50 μl, 6% w/w ethanol, HFA 152a): 97.5±1.7%
*Melatonin μg per 56 mg (63 μl) ([4]; 0% w/w ethanol, T = 5° C.): 8 μg per 56 mg (63 μl)
Melatonin %(w/w) in filtered supersaturated HFA152a solution ([4]; 0% w/w ethanol, T = 5° C.): 0.01 %(w/w)
Melatonin μg per 44 mg (50 μl) ([4]; 0% w/w ethanol, T = 5° C.): 6 μg per 44 mg (50 μl)
*Melatonin μg per 56 mg (63 μl) ([4]; 0% w/w ethanol, T = 20° C.): 9 μg per 56 mg (63 μl)
Melatonin %(w/w) in filtered supersaturated HFA152a solution ([4]; 0% w/w ethanol, T = 20° C.): 0.02 %(w/w)
Melatonin μg per 44 mg (50 μl) ([4]; 0% w/w ethanol, T = 20° C.): 7 μg per 44 mg (50 μl)
*Melatonin μg per 56 mg (63 μl) ([4]; 5% w/w ethanol, T = 5° C.): 121 μg per 56 mg (63 μl)
Melatonin %(w/w) in filtered supersaturated HFA152a solution ([4]; 5% w/w ethanol, T = 5° C.): 0.22 %(w/w)
Melatonin μg per 44 mg (50 μl) ([4]; 5% w/w ethanol, T = 5° C.): 95 μg per 44 mg (50 μl)
*Melatonin μg per 56 mg (63 μl) ([4]; 5% w/w ethanol, T = 20° C.): 159 μg per 56 mg (63 μl)
Melatonin %(w/w) in filtered supersaturated HFA152a solution ([4]; 5% w/w ethanol, T = 20° C.): 0.28 %(w/w)
Melatonin μg per 44 mg (50 μl) ([4]; 5% w/w ethanol, T = 20° C.): 125 μg per 44 mg (50 μl)
*Melatonin μg per 56 mg (63 μl) ([4]; 8% w/w ethanol, T = 5° C.): 270 μg per 56 mg (63 μl)
Melatonin %(w/w) in filtered supersaturated HFA152a solution ([4]; 8% w/w ethanol, T = 5° C.): 0.48 %(w/w)
Melatonin μg per 44 mg (50 μl) ([4]; 8% w/w ethanol, T = 5° C.): 212 μg per 44 mg (50 μl)
*Melatonin μg per 56 mg (63 μl) ([4]; 8% w/w ethanol, T = 20° C.): 395 μg per 56 mg (63 μl)
Melatonin %(w/w) in filtered supersaturated HFA152a solution ([4]; 8% w/w ethanol, T = 20° C.): 0.70 %(w/w)
Melatonin μg per 44 mg (50 μl) ([4]; 8% w/w ethanol, T = 20° C.): 310 μg per 44 mg (50 μl)
*Melatonin μg per 56 mg (63 μl) ([4]; 10% w/w ethanol, T = 5° C.): 339 μg per 56 mg (63 μl)
Melatonin %(w/w) in filtered supersaturated HFA152a solution ([4]; 10% w/w ethanol, T = 5° C.): 0.60 %(w/w)
Melatonin μg per 44 mg (50 μl) ([4]; 10% w/w ethanol, T = 5° C.): 266 μg per 44 mg (50 μl)
*Melatonin μg per 56 mg (63 μl) ([4]; 10% w/w ethanol, T = 20° C.): 456 μg per 56 mg (63 μl)
Melatonin %(w/w) in filtered supersaturated HFA152a solution ([4]; 10% w/w ethanol, T = 20° C.): 0.82 %(w/w)
Melatonin μg per 44 mg (50 μl) ([4]; 10% w/w ethanol, T = 20° C.): 359 μg per 44 mg (50 μl)
*Melatonin μg per 56 mg (63 μl) ([4]; 15% w/w ethanol, T = 5° C.): 588 μg per 56 mg (63 μl)
Melatonin %(w/w) in filtered supersaturated HFA152a solution ([4]; 15% w/w ethanol, T = 5° C.): 1.05 %(w/w)
Melatonin μg per 44 mg (50 μl) ([4]; 15% w/w ethanol, T = 5° C.): 462 μg per 44 mg (50 μl)
*Melatonin μg per 56 mg (63 μl) ([4]; 15% w/w ethanol, T = 20° C.): 817 μg per 56 mg (63 μl)
Melatonin %(w/w) in filtered supersaturated HFA152a solution ([4]; 15% w/w ethanol, T = 20° C.): 1.46 %(w/w)
Melatonin μg per 44 mg (50 μl) ([4]; 15% w/w ethanol, T = 20° C.): 642 μg per 44 mg (50 μl)
Compound: COc1ccc2[nH]cc(CCNC(C)=O)c2c1 [Melatonin]
